The source of these data is patent US11510920B2, “Compositions and methods for treating EZH2-mediated cancer” (Icahn School of Medicine at Mount Sinai, priority 2016, dated 2022).

Common to all, as to type: cell-based
In assay [1] the test system is MCF-7 cells. Briefly: Proliferation assay (IncuCyte cell confluence), MCF-7. The following applies: Homo sapiens, MCF7, concentration for 50% of maximal inhibition of cell proliferation. On the procedure: (§1) 1-3×10^3 cells were seeded in 96-well plates in duplicates and treated at the indicated compound concentrations. Cells were monitored using the IncuCyte® live cell imaging system (Essen BioScience™, Ann Arbor, Mich.) which was placed in a cell culture incubator operated at 37° C. and 5% CO2. Cell confluence was determined using calculations derived from phase-contrast images. The concentration for 50% of maximal inhibition of cell proliferation (GI50) values were determined by fitting to a standard four-parameter logistic using GraphPad Prism® v5. Graphs depicting the GI50s of select EZH2 degraders/disruptors described here for various cancer cell lines are shown in FIGS. 4-49.

In assay [2] the test system is MDA-MB-468 cells. The assay can be described thus: Proliferation assay (IncuCyte cell confluence), MDA-MB-468. The following applies: Homo sapiens, concentration for 50% of maximal inhibition of cell proliferation. On the procedure:
as §1

For assay [3], the system named is HCC1187 cells. Briefly: Proliferation assay (IncuCyte cell confluence), HCC1187. The following applies: Homo sapiens, concentration for 50% of maximal inhibition of cell proliferation. On the procedure: as §1
The subject of assay [4] is HCC1170 cells. The assay can be described thus: Proliferation assay (IncuCyte cell confluence), HCC1170. The note with it: concentration for 50% of maximal inhibition of cell proliferation. On the procedure: as §1
In assay [5] the test system is BT549 cells. Briefly: Proliferation assay (IncuCyte cell confluence), BT549. The note with it: Homo sapiens, BT-549, concentration for 50% of maximal inhibition of cell proliferation. On the procedure:
as §1

Assay [6] relates to HCC1954 cells. The assay can be described thus: Proliferation assay (IncuCyte cell confluence), HCC1954. The note with it: Homo sapiens, concentration for 50% of maximal inhibition of cell proliferation. On the procedure:
as §1

In the case of `CCCc1cc(C)[nH]c(=O)c1CNC(=O)c1cc(-c2ccc(N3CCN(CCNC(=O)CC45CC6CC(CC(C6)C4)C5)CC3)nc2)cc2c1cnn2C(C)C` [AM16-10A, 6-(6-(4-(2-(2-((3r,5r,7r)-adamantan-1-yl)acetamido)ethyl)piperazin-1-yl)pyridin-3-yl)-1-isopropyl-N-((6-methyl-2-oxo-4-propyl-1,2-dihydropyridin-3-yl)methyl)-1H-indazole-4-carboxamide], the GI50 was determined as 1.2 µM in assay [1], 1.4 µM in assay [2], 0.57 µM in assay [3] and 1.2 µM in assay [4].
Compound `CCCc1cc(C)[nH]c(=O)c1CNC(=O)c1cc(-c2ccc(N3CCN(C(=O)CCC45CC6CC(CC(C6)C4)C5)CC3)nc2)cc2c1cnn2C(C)C` [AM16-38A, 6-(6-(4-(3-((3r,5r,7r)-adamantan-1-yl)propanoyl)piperazin-1-yl)pyridin-3-yl)-1-isopropyl-N-((6-methyl-2-oxo-4-propyl-1,2-dihydropyridin-3-yl)methyl)-1H-indazole-4-carboxamide] returned a GI50 in assay [3] of 2 µM.
`Cc1cc(C)c(CNC(=O)c2cc(-c3ccc(N4CCN(C(=O)CC56CC7CC(CC(C7)C5)C6)CC4)nc3)cc3c2cnn3C(C)C)c(=O)[nH]1` [AM16-92A, 6-(6-(4-(2-((1s,3s)-adamantan-1-yl)acetyl)piperazin-1-yl)pyridin-3-yl)-N-((4,6-dimethyl-2-oxo-1,2-dihydropyridin-3-yl)methyl)-1-isopropyl-1H-indazole-4-carboxamide]: the GI50 in assay [1] amounted to 1 µM; in assay [3], 1.1 µM.
For `Cc1cc(C)c(CNC(=O)c2cc(-c3ccc(N4CCN(C(=O)CCC56CC7CC(CC(C7)C5)C6)CC4)nc3)cc3c2cnn3C(C)C)c(=O)[nH]1` [AM16-93A, 6-(6-(4-(3-((1r,3s)-adamantan-1-yl)propanoyl)piperazin-1-yl)pyridin-3-yl)-N-((4,6-dimethyl-2-oxo-1,2-dihydropyridin-3-yl)methyl)-1-isopropyl-1H-indazole-4-carboxamide], the GI50 in assay [3] is 1.5 µM.
Same read-out and setting: under `Cc1cc(C)c(CNC(=O)c2cc(-c3ccc(N4CCN(C(=O)[C@H](C)CCC56CC7CC(CC(C7)C5)C6)CC4)nc3)cc3c2cnn3C(C)C)c(=O)[nH]1` [AM16-97A, 6-(6-(4-((2R)-4-((1r,3S)-adamantan-1-yl)-2-methylbutanoyl)piperazin-1-yl)pyridin-3-yl)-N-((4,6-dimethyl-2-oxo-1,2-dihydropyridin-3-yl)methyl)-1-isopropyl-1H-indazole-4-carboxamide] stands 1.2 µM.
`Cc1cc(C)c(CNC(=O)c2cc(-c3ccc(N4CCN(CCNC(=O)C56CC7CC(CC(C7)C5)C6)CC4)nc3)cc3c2cnn3C(C)C)c(=O)[nH]1` [AM16-101A, 6-(6-(4-(2-((1s,3s)-adamantane-1-carboxamido)ethyl)piperazin-1-yl)pyridin-3-yl)-N-((4,6-dimethyl-2-oxo-1,2-dihydropyridin-3-yl)methyl)-1-isopropyl-1H-indazole-4-carboxamide]: the GI50 was 0.69 µM in assay [1] and 1.1 µM in assay [2].
In the case of `Cc1cc(C)c(CNC(=O)c2cc(-c3ccc(N4CCN(CCNCCC56CC7CC(CC(C7)C5)C6)CC4)nc3)cc3c2cnn3C(C)C)c(=O)[nH]1` [AM16-103A, 6-(6-(4-(2-((2-((3r,5r,7r)-adamantan-1-yl)ethyl)amino)ethyl)piperazin-1-yl)pyridin-3-yl)-N-((4,6-dimethyl-2-oxo-1,2-dihydropyridin-3-yl)methyl)-1-isopropyl-1H-indazole-4-carboxamide], the GI50 in assay [2] was 1.2 µM; in assay [5] it was 1.4 µM; in assay [6] it was 2.1 µM.
Consider `Cc1cc(C)c(CNC(=O)c2cc(-c3ccc(N4CCN(CCNC(=O)[C@H](C)CCC56CC7CC(CC(C7)C5)C6)CC4)nc3)cc3c2cnn3C(C)C)c(=O)[nH]1` [AM16-105A, 6-(6-(4-(2-((2R)-4-((1r,3S)-adamantan-1-yl)-2-methyl-butanamido)ethyl)piperazin-1-yl)pyridin-3-yl)-N-((4,6-dimethyl-2-oxo-1,2-dihydropyridin-3-yl)methyl)-1-isopropyl-1H-indazole-4-carboxamide], for which the GI50 worked out at 2.3 µM in assay [1] and 1.2 µM in assay [3].
In turn, `Cc1cc(C)c(CNC(=O)c2cc(-c3ccc(N4CCN(CCCNC(=O)[C@H](C)CCC56CC7CC(CC(C7)C5)C6)CC4)nc3)cc3c2cnn3C(C)C)c(=O)[nH]1` [AM16-106A, 6-(6-(4-(3-((R)-4-((3R,5R,7R)-adamantan-1-yl)-2-methyl-butanamido)propyl)piperazin-1-yl)pyridin-3-yl)-N-((4,6-dimethyl-2-oxo-1,2-dihydro-pyridin-3-yl)methyl)-1-isopropyl-1H-indazole-4-carboxamide] gave a 50% growth inhibitory concentration (GI50) in assay [3] of 4.3 µM.
`Cc1cc(C)c(CNC(=O)c2cc(-c3ccc(N4CCN(CCNC(=O)CC56CC7CC(C)(CC(C)(C7)C5)C6)CC4)nc3)cc3c2cnn3C(C)C)c(=O)[nH]1` [AM29-21A, N-((4,6-dimethyl-2-oxo-1,2-dihydropyridin-3-yl)methyl)-6-(6-(4-(2-(2-((1r,3R,5S,7r)-3,5-dimethyladamantan-1-yl)acetamido)ethyl)piperazin-1-yl)pyridin-3-yl)-1-isopropyl-1H-indazole-4-carboxamide]: the GI50 stood at 0.28 µM in assay [1] and 0.2 µM in assay [2].
The matching figures for `Cc1cc(C)c(CNC(=O)c2cc(-c3ccc(N4CCN(CCNC(=O)C56CC7CC(C)(CC(C)(C7)C5)C6)CC4)nc3)cc3c2cnn3C(C)C)c(=O)[nH]1` [AM29-22A, N-((4,6-dimethyl-2-oxo-1,2-dihydropyridin-3-yl)methyl)-6-(6-(4-(2-((1R,3S)-3,5-dimethyladamantane-1-carboxamido)ethyl)piperazin-1-yl)pyridin-3-yl)-1-isopropyl-1H-indazole-4-carboxamide]: 0.69 µM and 0.87 µM.
In the same order, the values of `Cc1cc(C)c(CNC(=O)c2cc(-c3ccc(N4CCN(CCC(=O)NCC56CC7CC(CC(C7)C5)C6)CC4)nc3)cc3c2cnn3C(C)C)c(=O)[nH]1` [AM29-33A, 6-(6-(4-(3-((((3r,5r,7r)-adamantan-1-yl)methyl)amino)-3-oxopropyl)piperazin-1-yl)pyridin-3-yl)-N-((4,6-dimethyl-2-oxo-1,2-dihydropyridin-3-yl)methyl)-1-isopropyl-1H-indazole-4-carboxamide] are 0.7 µM and 0.71 µM.
For `Cc1cc(C)c(CNC(=O)c2cc(-c3ccc(N4CCN(CCNC(=O)CC5C6CC7CC(C6)CC5C7)CC4)nc3)cc3c2cnn3C(C)C)c(=O)[nH]1` (centres unmarked) [AM29-182A, 6-(6-(4-(2-(2-((1r,3r,5r,7r)-adamantan-2-yl)acetamido)ethyl)piperazin-1-yl)pyridin-3-yl)-N-((4,6-dimethyl-2-oxo-1,2-dihydropyridin-3-yl)methyl)-1-isopropyl-1H-indazole-4-carboxamide], the GI50 worked out at 1.8 µM in assay [2], 2.5 µM in assay [5] and 3.9 µM in assay [6].
Turning to `Cc1cc(C)c(CNC(=O)c2cc(-c3ccc(N4CCN(CCNC(=O)CC56CC7CC(CC(C7)C5)C6)CC4)nc3)cc3c2cnn3C(C)C)c(=O)[nH]1` [XY019-43, 6-(6-(4-(2-(2-((3r,5r,7r)-adamantan-1-yl)acetamido)ethyl)piperazin-1-yl)pyridin-3-yl)-N-((4,6-dimethyl-2-oxo-1,2-dihydropyridin-3-yl)methyl)-1-isopropyl-1H-indazole-4-carboxamide], the GI50 in assay [1] stood at 0.35 µM; in assay [2], 0.54 µM; in assay [3], 0.65 µM; in assay [5], 2.2 µM; in assay [6], 2.7 µM.
In turn, `Cc1cc(C)c(CNC(=O)c2cc(-c3ccc(N4CCN(CCNC(=O)CCC56CC7CC(CC(C7)C5)C6)CC4)nc3)cc3c2cnn3C(C)C)c(=O)[nH]1` [XY019-44, 6-(6-(4-(2-(3-((3r,5r,7r)-adamantan-1-yl)propanamido)ethyl)piperazin-1-yl)pyridin-3-yl)-N-((4,6-dimethyl-2-oxo-1,2-dihydropyridin-3-yl)methyl)-1-isopropyl-1H-indazole-4-carboxamide] yielded a GI50 in assay [3] of 2.2 µM.
